Values after ≈ are worked out from the molar mass of the structure shown. Active and inactive are the calls of the source. The rule behind the calls is not given here.
Assays:
[1] = Permeability across apical to basolateral side in MDCK cells; format: ADME, cell-based, Canis lupus familiaris; conditions: dog, read-out: permeability
physchem = conditions: octanol/water, pH 7.4, logD
Description: (§1) Distribution coefficient, logD of compound at pH 7.4 by HPLC analysis

[2] = AUC in rat at 2 mg/kg, po; format: ADME, organism-based; conditions: in vivo
Integrin alpha-V/beta-6 = Integrin alpha-V/beta-6 (Homo sapiens, UniProt P06756+P18564); assay: Binding affinity to Integrin alphaVbeta6 (unknown origin); format: protein-complex assay
Chain of Integrin alpha-V/beta-6 (P06756 31-889 limits assumed): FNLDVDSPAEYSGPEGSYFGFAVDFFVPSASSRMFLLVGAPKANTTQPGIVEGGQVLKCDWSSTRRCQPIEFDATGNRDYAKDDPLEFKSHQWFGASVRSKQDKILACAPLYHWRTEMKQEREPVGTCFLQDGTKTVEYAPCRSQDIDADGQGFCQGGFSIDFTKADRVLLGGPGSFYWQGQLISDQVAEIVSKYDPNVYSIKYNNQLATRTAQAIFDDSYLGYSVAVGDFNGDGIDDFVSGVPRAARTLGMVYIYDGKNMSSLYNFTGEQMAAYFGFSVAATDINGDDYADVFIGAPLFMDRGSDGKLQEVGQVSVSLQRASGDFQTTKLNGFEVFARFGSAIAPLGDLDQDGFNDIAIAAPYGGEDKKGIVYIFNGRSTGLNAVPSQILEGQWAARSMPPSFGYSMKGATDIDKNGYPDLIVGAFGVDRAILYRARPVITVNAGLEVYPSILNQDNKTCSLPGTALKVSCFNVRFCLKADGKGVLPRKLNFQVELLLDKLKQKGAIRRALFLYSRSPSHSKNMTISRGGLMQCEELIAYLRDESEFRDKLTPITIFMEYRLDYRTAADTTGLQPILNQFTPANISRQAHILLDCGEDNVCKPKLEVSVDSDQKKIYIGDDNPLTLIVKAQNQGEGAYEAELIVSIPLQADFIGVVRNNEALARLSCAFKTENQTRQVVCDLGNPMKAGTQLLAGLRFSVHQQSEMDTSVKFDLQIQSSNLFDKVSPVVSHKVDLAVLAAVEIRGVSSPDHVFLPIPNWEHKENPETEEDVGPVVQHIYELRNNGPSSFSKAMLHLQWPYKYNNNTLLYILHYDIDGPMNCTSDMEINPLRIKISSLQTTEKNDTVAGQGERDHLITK
Chain of Integrin alpha-V/beta-6 (P06756 891-1048 limits assumed): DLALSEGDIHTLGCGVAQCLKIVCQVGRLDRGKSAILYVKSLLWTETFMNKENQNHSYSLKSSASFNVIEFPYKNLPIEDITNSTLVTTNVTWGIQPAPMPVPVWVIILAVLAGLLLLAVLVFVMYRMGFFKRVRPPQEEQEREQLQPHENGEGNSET
Chain of Integrin alpha-V/beta-6 (P18564 22-788 limits assumed): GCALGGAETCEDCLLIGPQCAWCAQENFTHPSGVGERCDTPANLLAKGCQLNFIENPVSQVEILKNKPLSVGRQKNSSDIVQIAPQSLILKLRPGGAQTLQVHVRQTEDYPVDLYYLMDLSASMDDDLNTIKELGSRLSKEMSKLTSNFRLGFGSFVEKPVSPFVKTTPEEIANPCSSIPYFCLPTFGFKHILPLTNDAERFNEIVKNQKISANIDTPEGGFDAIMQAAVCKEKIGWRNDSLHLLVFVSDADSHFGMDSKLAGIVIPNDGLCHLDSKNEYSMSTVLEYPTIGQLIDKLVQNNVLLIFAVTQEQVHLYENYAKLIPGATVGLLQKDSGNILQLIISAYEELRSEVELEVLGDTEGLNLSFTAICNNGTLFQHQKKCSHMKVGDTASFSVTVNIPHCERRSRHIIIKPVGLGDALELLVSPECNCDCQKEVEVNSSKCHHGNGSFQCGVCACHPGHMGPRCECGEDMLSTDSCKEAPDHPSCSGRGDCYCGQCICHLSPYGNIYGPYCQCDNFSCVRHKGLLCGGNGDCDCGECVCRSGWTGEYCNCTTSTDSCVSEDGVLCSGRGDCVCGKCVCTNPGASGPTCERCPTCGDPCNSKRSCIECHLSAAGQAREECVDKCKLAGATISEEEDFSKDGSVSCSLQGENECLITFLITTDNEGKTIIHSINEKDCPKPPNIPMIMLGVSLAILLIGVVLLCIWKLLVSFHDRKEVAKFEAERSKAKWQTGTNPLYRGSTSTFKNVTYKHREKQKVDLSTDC

in vitro = conditions: dog, MDCK-MDR1, permeability
Description: (§2) Permeability across apical to basolateral side in dog MDCK-MDR1 cells measured for 60 mins by LC-MS/MS analysis

[3] = target: T1, Voltage-gated inwardly rectifying potassium channel KCNH2 (Homo sapiens, UniProt Q12809); assay: Inhibition of hERG by patch clamp assay; format: toxicity
T1 sequence (Q12809 whole entry): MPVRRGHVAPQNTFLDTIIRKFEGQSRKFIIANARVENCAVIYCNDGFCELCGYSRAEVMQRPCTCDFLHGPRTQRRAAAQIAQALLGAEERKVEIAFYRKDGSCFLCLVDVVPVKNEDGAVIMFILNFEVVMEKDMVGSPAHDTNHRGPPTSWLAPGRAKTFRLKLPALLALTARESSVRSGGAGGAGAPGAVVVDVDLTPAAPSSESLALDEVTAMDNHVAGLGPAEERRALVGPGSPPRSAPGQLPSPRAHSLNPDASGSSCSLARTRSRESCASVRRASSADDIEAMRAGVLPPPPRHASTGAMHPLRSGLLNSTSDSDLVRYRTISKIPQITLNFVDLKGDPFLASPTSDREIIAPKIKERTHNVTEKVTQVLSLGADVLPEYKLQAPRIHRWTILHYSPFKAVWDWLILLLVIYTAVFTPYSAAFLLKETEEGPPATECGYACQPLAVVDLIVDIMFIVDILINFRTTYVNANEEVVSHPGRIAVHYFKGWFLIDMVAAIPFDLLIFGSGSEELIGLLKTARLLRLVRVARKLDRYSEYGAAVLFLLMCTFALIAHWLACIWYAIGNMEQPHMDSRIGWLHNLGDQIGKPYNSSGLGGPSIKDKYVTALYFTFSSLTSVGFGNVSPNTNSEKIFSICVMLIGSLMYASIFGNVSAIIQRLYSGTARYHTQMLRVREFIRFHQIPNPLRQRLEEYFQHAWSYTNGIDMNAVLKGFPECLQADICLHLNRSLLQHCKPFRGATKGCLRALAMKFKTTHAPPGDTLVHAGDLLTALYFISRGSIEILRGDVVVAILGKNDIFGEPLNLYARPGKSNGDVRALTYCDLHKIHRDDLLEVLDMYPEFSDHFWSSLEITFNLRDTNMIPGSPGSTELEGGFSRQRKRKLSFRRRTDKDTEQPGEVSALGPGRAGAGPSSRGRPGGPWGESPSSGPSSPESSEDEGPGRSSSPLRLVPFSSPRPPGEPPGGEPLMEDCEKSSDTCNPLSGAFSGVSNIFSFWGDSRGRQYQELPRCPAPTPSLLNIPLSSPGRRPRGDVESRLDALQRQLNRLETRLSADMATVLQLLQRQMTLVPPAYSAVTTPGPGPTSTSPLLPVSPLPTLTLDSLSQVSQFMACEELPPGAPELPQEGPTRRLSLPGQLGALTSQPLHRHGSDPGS

[4] = target: T1, Voltage-gated inwardly rectifying potassium channel KCNH2; assay: Inhibition of hERG by Qpatch clamp assay; format: toxicity
[5] = Metabolic stability in Wistar rat liver Microsome assessed as clearance measured upto 60 mins by LC-MS/MS analysis; format: ADME; conditions: microsomes, 1 h
[6] = Oral bioavailability in Gottingen minipig at 1 mg/kg measured upto 24 hrs by LC-MS/MS analysis; format: ADME, organism-based, Sus scrofa; conditions: pig, in vivo
[7] = Metabolic stability in Wistar rat Hepatocyte assessed as clearance measured upto 60 mins by LC-MS/MS analysis; format: ADME, cell-based; conditions: hepatocytes, 1 h
Integrin alpha-V/beta-3 = Integrin alpha-V/beta-3 (Homo sapiens, UniProt P05106+P06756); assay: Binding affinity to Integrin alphaVbeta3 (unknown origin); format: protein-complex assay
Chain of Integrin alpha-V/beta-3 (P05106 27-788 limits assumed): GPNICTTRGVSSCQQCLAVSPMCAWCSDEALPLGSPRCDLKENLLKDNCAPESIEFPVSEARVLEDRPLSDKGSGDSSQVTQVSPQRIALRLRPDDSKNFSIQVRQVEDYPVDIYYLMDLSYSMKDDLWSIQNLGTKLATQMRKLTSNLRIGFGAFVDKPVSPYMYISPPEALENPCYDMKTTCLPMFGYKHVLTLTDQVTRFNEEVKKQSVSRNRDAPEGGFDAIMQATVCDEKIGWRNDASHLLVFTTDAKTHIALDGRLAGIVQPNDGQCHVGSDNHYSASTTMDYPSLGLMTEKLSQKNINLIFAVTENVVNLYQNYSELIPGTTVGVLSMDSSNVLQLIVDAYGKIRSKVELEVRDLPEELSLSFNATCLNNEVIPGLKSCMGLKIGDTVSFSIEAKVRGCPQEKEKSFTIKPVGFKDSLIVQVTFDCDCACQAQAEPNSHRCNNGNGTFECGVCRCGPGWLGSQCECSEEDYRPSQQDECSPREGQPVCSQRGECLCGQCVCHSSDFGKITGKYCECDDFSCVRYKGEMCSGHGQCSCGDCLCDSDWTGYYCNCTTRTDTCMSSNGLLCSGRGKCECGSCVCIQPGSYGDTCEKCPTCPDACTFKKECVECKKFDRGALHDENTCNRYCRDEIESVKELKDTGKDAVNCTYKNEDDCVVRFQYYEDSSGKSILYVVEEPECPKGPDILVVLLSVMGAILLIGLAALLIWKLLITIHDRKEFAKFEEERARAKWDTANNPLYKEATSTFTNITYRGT
Chain of Integrin alpha-V/beta-3 (P06756 31-889 limits assumed): as the sequence (P06756 31-889 limits assumed) above
Chain of Integrin alpha-V/beta-3 (P06756 891-1048 limits assumed): as the sequence (P06756 891-1048 limits assumed) above

[8] = Metabolic stability in human Hepatocyte assessed as clearance measured upto 60 mins by LC-MS/MS analysis; format: ADME, cell-based; conditions: hepatocytes, 1 h
[9] = Unbound clearance in Gottingen minipig at 1 mg/kg, po or 1 mg/kg, iv measured upto 24 hrs by LC-MS/MS analysis; format: ADME, organism-based, Sus scrofa; conditions: pig, in vivo
Integrin alpha-V/beta-1 = Integrin alpha-V/beta-1 (Homo sapiens, UniProt P05556+P06756); assay: Binding affinity to Integrin alphaVbeta1 (unknown origin); format: protein-complex assay
[10] = Kinetic solubility of compound; format: physicochemical; conditions: read-out: Kinetic_solubility
[11] = Volume of distribution at steady state in male Wistar Han rat at 1 mg/kg, po or 1 mg/kg, iv measured upto 24 hrs by LC-MS/MS analysis; format: ADME, organism-based; conditions: in vivo
[12] = Volume of distribution at steady state in Gottingen minipig at 1 mg/kg, po or 1 mg/kg, iv measured upto 24 hrs by LC-MS/MS analysis; format: ADME, organism-based, Sus scrofa; conditions: pig, in vivo
[13] = Metabolic stability in human microsome assessed as clearance measured upto 60 mins by LC-MS/MS analysis; format: ADME; conditions: microsomes, 1 h
[14] = Half life in Gottingen minipig at 1 mg/kg, iv measured upto 24 hrs by LC-MS/MS analysis; format: ADME, organism-based, Sus scrofa; conditions: pig, in vivo
[15] = Half life in male Wistar Han rat at 1 mg/kg, iv measured upto 24 hrs by LC-MS/MS analysis; format: ADME, organism-based; conditions: in vivo
[16] = Unbound clearance in male Wistar Han rat at 1 mg/kg, po or 1 mg/kg, iv measured upto 24 hrs by LC-MS/MS analysis; format: ADME, organism-based; conditions: in vivo
[17] = Oral bioavailability in male Wistar Han rat at 1 mg/kg measured upto 24 hrs by LC-MS/MS analysis; format: ADME, organism-based; conditions: in vivo
Integrin alpha-V/beta-8 = Integrin alpha-V/beta-8 (Homo sapiens, UniProt P06756+P26012); assay: Binding affinity to Integrin alphaVbeta8 (unknown origin); format: protein-complex assay
Integrin alpha-V/beta-5 = Integrin alpha-V/beta-5 (Homo sapiens, UniProt P06756+P18084); assay: Binding affinity to Integrin alphaVbeta5 (unknown origin); format: protein-complex assay
Chain of Integrin alpha-V/beta-5 (P06756 31-889 limits assumed): as the sequence (P06756 31-889 limits assumed) above
Chain of Integrin alpha-V/beta-5 (P06756 891-1048 limits assumed): as the sequence (P06756 891-1048 limits assumed) above
Chain of Integrin alpha-V/beta-5 (P18084 24-799 limits assumed): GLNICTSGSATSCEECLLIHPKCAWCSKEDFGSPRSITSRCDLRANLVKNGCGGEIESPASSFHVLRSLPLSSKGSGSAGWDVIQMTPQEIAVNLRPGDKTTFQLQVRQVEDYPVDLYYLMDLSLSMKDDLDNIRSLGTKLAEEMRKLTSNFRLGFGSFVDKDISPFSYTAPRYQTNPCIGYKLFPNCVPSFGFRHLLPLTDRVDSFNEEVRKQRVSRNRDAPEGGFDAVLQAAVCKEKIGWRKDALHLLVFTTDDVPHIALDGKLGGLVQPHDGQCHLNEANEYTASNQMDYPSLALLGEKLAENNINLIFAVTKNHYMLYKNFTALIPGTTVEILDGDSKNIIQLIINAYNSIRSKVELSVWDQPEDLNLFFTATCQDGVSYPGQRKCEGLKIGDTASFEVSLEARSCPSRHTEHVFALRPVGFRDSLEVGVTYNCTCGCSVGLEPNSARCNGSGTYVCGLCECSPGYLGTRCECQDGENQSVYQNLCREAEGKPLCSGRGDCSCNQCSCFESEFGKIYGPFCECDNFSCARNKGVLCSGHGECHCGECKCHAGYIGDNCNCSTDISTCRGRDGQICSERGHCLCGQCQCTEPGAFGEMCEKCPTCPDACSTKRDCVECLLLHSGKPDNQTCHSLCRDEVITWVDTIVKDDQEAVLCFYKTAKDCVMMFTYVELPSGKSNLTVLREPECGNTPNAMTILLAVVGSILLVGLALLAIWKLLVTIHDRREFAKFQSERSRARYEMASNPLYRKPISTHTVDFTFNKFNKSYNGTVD

[18] = Half life in male Beagle dog at 1 mg/kg, iv measured upto 24 hrs by LC-MS/MS analysis; format: ADME, organism-based, Canis lupus familiaris; conditions: in vivo
[19] = Volume of distribution at steady state in male Beagle dog at 1 mg/kg, po or 1 mg/kg, iv measured upto 24 hrs by LC-MS/MS analysis; format: ADME, organism-based, Canis lupus familiaris; conditions: in vivo
[20] = Unbound clearance in male Beagle dog at 1 mg/kg, po or 1 mg/kg, iv measured upto 24 hrs by LC-MS/MS analysis; format: ADME, organism-based, Canis lupus familiaris; conditions: in vivo
[21] = Oral bioavailability in male Beagle dog at 1 mg/kg measured upto 24 hrs by LC-MS/MS analysis; format: ADME, organism-based, Canis lupus familiaris; conditions: in vivo
[22] = dog, mdck-mdr1, 1 h
Description: as §2

[23] = octanol/water, pH 7.4
Description: as §1

Mus musculus [24] = assay: Antifibrotic activity against bleomycin-induced mouse model of pulmonary fibrosis at 2 to 10 mg/kg, po; format: functional, organism-based; conditions: dose 2-10 mg/kg
[25] = Volume of distribution at steady state in male Wistar Han rat at 2 mg/kg, po measured upto 24 hrs by LC-MS/MS analysis; format: ADME, organism-based; conditions: in vivo
[26] = Oral bioavailability in male Wistar Han rat at 2 mg/kg measured upto 24 hrs by LC-MS/MS analysis; format: ADME, organism-based; conditions: in vivo
Mus musculus [27] = assay: Antifibrotic activity against bleomycin-induced mouse model of pulmonary fibrosis at 2 to 15 mg/kg, po; format: functional, organism-based; conditions: dose 2-15 mg/kg

Compound	Papp A→B [1] [×10⁻⁶ cm/s]	logD (physchem)	IC50 (Integrin alpha-V/beta-6) [nM]	Papp A→B at 1 h (in vitro) [×10⁻⁶ cm/s]	solubility kinetic [10] [µg/mL]	Vdss [11] [L/kg]	CLH [13] [mL/min/g]	half-life [15] [h]	CL free [16] [mL/min/kg]	bioavailability [17] [%]	further results
COCCOc1cccc([C@H](CC(=O)O)CN2CC[C@](F)(CCc3ccc4c(n3)NCCC4)C2)c1	1.9	2.89									AUC [2]: 101 ng·h/mL
O=C(O)C[C@H](CN1CCC(F)(F)C(CCc2ccc3c(n2)NCCC3)C1)c1cccc(N2CCOCC2)c1 (stereo in doubt; 2a)		4.02	2000	37							
O=C(O)C[C@H](CN1CC[C@@H](CCc2ccc3c(n2)NCCC3)C1)c1cccc(N2CCOCC2)c1		2.27		2.7							
O=C(O)C[C@H](CN1CC[C@](F)(CCc2ccc3c(n2)NCCC3)C1)c1cccc(N2CCOCC2)c1		2.66		9.3							IC50 [3]: > 10000 nM; IC50 [4]: > 10000 nM
O=C(O)C[C@H](CN1CC[C@@](F)(CCc2ccc3c(n2)NCCC3)C1)c1cccc(O[C@@H]2CCOC2)c1	7.8	2.76		20.5	232 (≈ 466 µM)	3.3	< 0.4	3.1	88	90	CLH [5]: < 0.46 mL/min/g; bioavailability [6]: 66%; CLH [7]: 1.4 mL/min/g; IC50 (Integrin alpha-V/beta-3): 63.1 nM; CLH [8]: < 0.21 mL/min/g; CL free [9]: 34 mL/min/kg; IC50 (Integrin alpha-V/beta-1): 158 nM; Vdss [12]: 1.5 L/kg; half-life [14]: 1.7 h
O=C(O)C[C@H](CN1CC[C@@](F)(CCc2ccc3c(n2)NCCC3)C1)c1cccc(OC2CCOCC2)c1	12.1	3.18		17.2	209 (≈ 408 µM)	4.9	< 0.4	3.5	182	50	CLH [5]: < 0.46 mL/min/g; CLH [7]: 1.6 mL/min/g; CLH [8]: < 0.21 mL/min/g; IC50 (Integrin alpha-V/beta-8): 12.6 nM; IC50 (Integrin alpha-V/beta-5): 31.6 nM
O=C(O)C[C@H](CN1CC[C@@](F)(CCc2ccc3c(n2)NCCC3)C1)c1cccc(N2CCOCC2)c1	8.7	2.68		21.8	258 (≈ 520 µM)	4.1	< 0.46	1.9	206	77	CLH [5]: < 0.49 mL/min/g; bioavailability [6]: 34%; CLH [7]: < 1.04 mL/min/g; CLH [8]: < 0.62 mL/min/g; half-life [18]: 6.1 h; CL free [9]: 58 mL/min/kg; Vdss [19]: 2.5 L/kg; Vdss [12]: 2.5 L/kg; half-life [14]: 3 h; CL free [20]: 18 mL/min/kg; IC50 [3]: > 10000 nM; IC50 [4]: > 10000 nM; bioavailability [21]: 74%
O=C(O)C[C@H](CN1CC(CCc2ccc3c(n2)NCCC3)CC(F)(F)C1)c1cccc(N2CCOCC2)c1 (stereo in doubt; 3b)			79.4								permeability [22]: 56 ×10⁻⁶ cm/s; logD [23]: 4.33
COCCOc1cccc([C@H](CC(=O)O)CN2CC[C@@](F)(CCc3ccc4c(n3)NCCC4)C2)c1	8.7	2.93		14.6	127 (≈ 262 µM)						Activity (Mus musculus [24]): Active; Vdss [25]: 3.6 L/kg; bioavailability [6]: 84%; Vdss [19]: 1.4 L/kg; Vdss [12]: 0.9 L/kg; AUC [2]: 779 ng·h/mL; bioavailability [26]: 93%; Activity (Mus musculus [27]): Active; bioavailability [21]: 104%
O=C(O)C[C@H](CN1CCC(F)(F)C(CCc2ccc3c(n2)NCCC3)C1)c1cccc(N2CCOCC2)c1 (stereo in doubt; 2b)			501								permeability [22]: 56 ×10⁻⁶ cm/s; logD [23]: 4.62
O=C(O)C[C@H](CN1CCCC(F)(CCc2ccc3c(n2)NCCC3)C1)c1cccc(N2CCOCC2)c1 (stereo in doubt; 4b)			200								permeability [22]: 38 ×10⁻⁶ cm/s
Cc1cc(C)n(-c2cccc([C@H](CC(=O)O)CN3CC[C@@](F)(CCc4ccc5c(n4)NCCC5)C3)c2)n1	17.7	3.3	10	33	262 (≈ 518 µM)		< 0.53				CLH [5]: 0.91 mL/min/g; CLH [7]: 13.75 mL/min/g; IC50 (Integrin alpha-V/beta-3): 316 nM; CLH [8]: < 0.86 mL/min/g; IC50 (Integrin alpha-V/beta-8): 20 nM; IC50 (Integrin alpha-V/beta-5): 200 nM
Cc1cc(C)n(-c2cccc([C@H](CC(=O)O)CN3CC[C@@H](CCc4ccc5c(n4)NCCC5)C3)c2)n1.Cl [GSK-3008348]						2.1		0.8	189	< 2	half-life [18]: 3.6 h; Vdss [19]: 3.6 L/kg; CL free [20]: 124 mL/min/kg; bioavailability [21]: 30%
O=C(O)C[C@H](CN1CC(CCc2ccc3c(n2)NCCC3)CC(F)(F)C1)c1cccc(N2CCOCC2)c1 (stereo in doubt; 3a)		3.46	631	36							
O=C(O)C[C@H](CN1CCCC(F)(CCc2ccc3c(n2)NCCC3)C1)c1cccc(N2CCOCC2)c1 (stereo in doubt; 4a)		2.68	50.1	21.6							
O=C(O)C[C@H](CN1CC[C@@](F)(CCc2ccc3c(n2)NCCC3)C1)c1cccc(O[C@H]2CCOC2)c1	7.6	2.84		26	194 (≈ 390 µM)	1.9	< 0.4	2.8	58	61	bioavailability [6]: 63%; CL free [9]: 26 mL/min/kg; Vdss [12]: 1.4 L/kg; half-life [14]: 3.4 h

From ChEMBL document CHEMBL6120942 (J Med Chem, 2024)
